Experiments:
[1] = target: T1, EP2 (Homo sapiens, UniProt P43116); assay: EP2 flipr assay; format: cell-based
Source text: (§1) U.S. patent application Ser. No. 11/553,143, filed on Oct. 26, 2006, incorporated by reference herein, describes the methods used to obtain the in vitro data in the table below.

[2] = target: T1, EP2; assay: EP2 cAMP assay; format: cell-based
Source text: as §1

[3] = target: T1, EP2; assay: EP2 binding (Ki)
Source text: as §1

[4] = target: hFP (Homo sapiens, UniProt P43088); assay: Other receptors functional EC50, hFP; format: cell-based
hFP, sequence (P43088 whole entry): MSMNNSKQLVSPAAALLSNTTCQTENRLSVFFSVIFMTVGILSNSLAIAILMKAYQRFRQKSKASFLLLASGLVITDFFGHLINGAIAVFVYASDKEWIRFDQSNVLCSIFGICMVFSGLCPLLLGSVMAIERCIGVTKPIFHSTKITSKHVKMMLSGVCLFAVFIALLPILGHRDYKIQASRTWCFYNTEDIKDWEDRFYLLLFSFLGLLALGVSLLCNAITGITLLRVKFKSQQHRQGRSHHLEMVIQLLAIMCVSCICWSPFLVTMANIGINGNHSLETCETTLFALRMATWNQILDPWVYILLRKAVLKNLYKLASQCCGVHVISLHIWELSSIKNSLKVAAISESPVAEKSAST
Source text: as §1

[5] = target: T2, hTP (Homo sapiens, UniProt P21731); assay: Other receptors functional EC50, hTP; format: cell-based
T2 sequence (P21731 1-343): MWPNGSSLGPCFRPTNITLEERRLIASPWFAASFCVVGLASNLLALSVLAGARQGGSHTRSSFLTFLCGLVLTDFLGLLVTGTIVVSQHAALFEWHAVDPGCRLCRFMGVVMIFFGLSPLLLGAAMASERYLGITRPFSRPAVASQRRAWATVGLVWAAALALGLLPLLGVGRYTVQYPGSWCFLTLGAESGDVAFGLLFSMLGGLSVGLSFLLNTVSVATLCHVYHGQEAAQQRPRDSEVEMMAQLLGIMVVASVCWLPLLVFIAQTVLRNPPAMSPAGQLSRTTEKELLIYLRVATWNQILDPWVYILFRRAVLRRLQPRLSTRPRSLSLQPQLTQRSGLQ
Source text: as §1

[6] = target: T3, hDP (Homo sapiens, UniProt Q13258); assay: Other receptors functional EC50, hDP; format: cell-based
T3 sequence (Q13258 1-359): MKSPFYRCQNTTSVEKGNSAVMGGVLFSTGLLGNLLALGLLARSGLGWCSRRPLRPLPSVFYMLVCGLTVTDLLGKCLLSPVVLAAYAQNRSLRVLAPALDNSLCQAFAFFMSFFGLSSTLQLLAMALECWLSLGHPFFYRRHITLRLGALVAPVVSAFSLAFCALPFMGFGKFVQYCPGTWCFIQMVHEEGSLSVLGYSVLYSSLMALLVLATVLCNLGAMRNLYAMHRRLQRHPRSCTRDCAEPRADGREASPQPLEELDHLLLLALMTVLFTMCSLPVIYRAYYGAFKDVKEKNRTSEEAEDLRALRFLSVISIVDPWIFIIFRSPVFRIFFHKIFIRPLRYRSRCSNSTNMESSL
Source text: as §1

T1 sequence (P43116 whole entry): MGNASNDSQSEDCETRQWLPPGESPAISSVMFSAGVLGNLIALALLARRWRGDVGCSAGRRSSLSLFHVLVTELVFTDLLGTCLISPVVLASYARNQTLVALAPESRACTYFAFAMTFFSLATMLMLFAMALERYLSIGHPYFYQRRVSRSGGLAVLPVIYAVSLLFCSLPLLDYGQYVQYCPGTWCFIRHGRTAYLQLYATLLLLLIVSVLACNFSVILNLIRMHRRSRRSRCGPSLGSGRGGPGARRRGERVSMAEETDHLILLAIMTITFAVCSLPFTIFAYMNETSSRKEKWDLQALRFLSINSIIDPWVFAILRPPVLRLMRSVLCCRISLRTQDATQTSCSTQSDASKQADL

- EC50 [1]: 5.89 µM
- EC50 [2]: 38 nM
- Ki [3]: 215 nM
- EC50 [4]: > 10000 nM
- EC50 [5]: > 10000 nM
- EC50 [6]: 4640 nM
Structure (SMILES): O=C(O)c1ccc(COC[C@H]2CCC(=O)N2c2ccc(-c3nccs3)cc2)s1 [compound 58, (R)-5-(((5-oxo-1-(4-(thiazol-2-yl)phenyl)pyrrolidin-2-yl)methoxy)methyl)thiophene-2-carboxylic acid]

Reference: patent US7589213B2 (priority 2007, dated 2009)
